Source: ChEMBL document CHEMBL5728232, “Multi-functionalized polysaccharide compounds and use thereof for targeting the cation-independent mannose 6-phosphate receptor” (2021)

Target: Cation-independent mannose-6-phosphate receptor (Homo sapiens, UniProt P11717)
Experiment: Binding of the M6P Analogs of the Invention with CI-M6PR: 96-Well plates (Maxisorp Nunc) are incubated overnight at 4° C. with 200 μl of PMP (pentamannose 6-phosphate) at the concentration of 200 μg·ml−1, in carbonate buffer (NaHCO3/Na2CO3 at 0.1M, pH 9.6). The following day, the solution containing the residual PMP is discarded and the wells are saturated, for 1 h at ambient temperature, with 360 μl of 1% gelatin (Type A from Porcine Skin) diluted in PBS (1.9 mM NaH2PO4, 8.1 mM Na2PO4 and 154 mM NaCl, pH 7.4). The wells are then rinsed five times with PBS to which 0.2% gelatin has been added. All the washes and also the dilutions are carried out in the solution of PBS to which 0.2% gelatin has been added. The M6P analogs to be tested at the various concentrations (from 10−2 to 10−7 M) are pre-incubated in the presence of pre-biotinylated CI-M6PR (M6PRb) ([…]) for 20 min, then 200 μl of the mixture are incubated in the wells for 2 h, at ambient temperature. After three washes, the wells are incubated for 1 h with a streptavidin-peroxidase solution (250 μl per well; 3.10−8 M). After three more washes, 200 μl of a solution of OPD (o-phenylenediamine, 1 mg·ml−1 in citrate buffer, pH 5.0, and 1 μl 30% H2O2.ml−1; Sigma Aldrich) are added. […]

Cation-independent mannose-6-phosphate receptor, sequence (P11717 whole entry): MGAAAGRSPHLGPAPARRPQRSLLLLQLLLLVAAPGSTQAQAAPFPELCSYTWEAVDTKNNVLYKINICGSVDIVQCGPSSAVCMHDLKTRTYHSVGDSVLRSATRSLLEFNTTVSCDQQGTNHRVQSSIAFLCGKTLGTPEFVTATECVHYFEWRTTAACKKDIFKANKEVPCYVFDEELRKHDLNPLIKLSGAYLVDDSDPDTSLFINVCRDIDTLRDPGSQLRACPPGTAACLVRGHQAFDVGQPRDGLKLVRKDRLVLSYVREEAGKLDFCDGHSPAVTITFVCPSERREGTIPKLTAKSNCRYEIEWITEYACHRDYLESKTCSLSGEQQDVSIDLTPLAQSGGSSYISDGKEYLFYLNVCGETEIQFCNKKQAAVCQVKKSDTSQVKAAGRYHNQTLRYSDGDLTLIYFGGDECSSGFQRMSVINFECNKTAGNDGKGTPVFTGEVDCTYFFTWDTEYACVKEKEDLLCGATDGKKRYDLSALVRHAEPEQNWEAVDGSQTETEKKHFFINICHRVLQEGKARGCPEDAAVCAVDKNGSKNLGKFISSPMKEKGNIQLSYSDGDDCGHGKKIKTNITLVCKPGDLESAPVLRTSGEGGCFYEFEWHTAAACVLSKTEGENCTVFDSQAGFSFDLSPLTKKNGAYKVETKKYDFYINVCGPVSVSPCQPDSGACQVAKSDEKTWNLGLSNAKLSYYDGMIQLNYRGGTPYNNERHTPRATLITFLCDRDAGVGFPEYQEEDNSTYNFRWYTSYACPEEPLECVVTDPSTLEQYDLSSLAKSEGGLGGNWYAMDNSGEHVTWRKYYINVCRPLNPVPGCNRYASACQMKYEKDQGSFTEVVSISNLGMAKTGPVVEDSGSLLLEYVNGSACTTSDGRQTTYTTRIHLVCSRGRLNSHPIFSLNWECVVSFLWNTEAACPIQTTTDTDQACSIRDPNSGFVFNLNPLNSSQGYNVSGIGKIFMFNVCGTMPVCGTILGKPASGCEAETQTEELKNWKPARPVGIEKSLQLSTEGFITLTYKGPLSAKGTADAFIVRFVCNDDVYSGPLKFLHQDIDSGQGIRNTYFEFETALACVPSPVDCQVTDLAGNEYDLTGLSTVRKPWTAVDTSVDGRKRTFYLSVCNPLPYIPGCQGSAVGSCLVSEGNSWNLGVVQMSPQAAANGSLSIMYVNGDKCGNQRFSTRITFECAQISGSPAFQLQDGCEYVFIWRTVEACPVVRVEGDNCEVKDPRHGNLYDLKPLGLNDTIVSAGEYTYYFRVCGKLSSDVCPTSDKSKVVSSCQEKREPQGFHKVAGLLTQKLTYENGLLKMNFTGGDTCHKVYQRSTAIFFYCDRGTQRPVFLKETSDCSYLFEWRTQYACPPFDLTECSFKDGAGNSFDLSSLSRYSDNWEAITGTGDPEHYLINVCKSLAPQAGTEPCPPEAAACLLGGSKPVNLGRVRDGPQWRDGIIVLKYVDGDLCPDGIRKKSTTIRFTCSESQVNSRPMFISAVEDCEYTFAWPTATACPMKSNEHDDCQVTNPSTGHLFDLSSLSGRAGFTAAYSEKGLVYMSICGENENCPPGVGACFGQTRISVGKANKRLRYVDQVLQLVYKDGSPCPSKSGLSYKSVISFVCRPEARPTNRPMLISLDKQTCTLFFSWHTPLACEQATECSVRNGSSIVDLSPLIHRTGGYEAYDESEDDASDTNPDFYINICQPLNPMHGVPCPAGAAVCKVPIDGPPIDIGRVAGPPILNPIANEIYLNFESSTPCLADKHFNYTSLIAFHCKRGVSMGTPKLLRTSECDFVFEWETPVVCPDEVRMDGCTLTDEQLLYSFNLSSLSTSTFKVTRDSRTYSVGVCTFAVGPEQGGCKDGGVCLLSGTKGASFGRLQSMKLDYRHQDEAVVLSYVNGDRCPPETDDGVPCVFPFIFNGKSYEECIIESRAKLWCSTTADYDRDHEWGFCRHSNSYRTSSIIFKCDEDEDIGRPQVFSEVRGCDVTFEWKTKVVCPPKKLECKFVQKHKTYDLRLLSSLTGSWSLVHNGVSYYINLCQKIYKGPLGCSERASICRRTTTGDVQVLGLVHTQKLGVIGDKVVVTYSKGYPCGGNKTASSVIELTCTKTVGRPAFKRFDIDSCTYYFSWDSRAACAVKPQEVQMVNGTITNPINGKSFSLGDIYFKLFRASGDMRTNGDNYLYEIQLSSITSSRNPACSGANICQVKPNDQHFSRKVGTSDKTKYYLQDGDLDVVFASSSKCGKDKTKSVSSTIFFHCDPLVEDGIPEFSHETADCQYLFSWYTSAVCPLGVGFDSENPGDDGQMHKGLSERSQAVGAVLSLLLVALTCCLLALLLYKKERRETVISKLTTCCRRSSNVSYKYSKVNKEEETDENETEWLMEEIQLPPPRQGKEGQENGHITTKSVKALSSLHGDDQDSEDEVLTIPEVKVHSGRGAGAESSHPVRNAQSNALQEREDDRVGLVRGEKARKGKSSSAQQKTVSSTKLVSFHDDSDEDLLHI

`NCCO[C@H]1OC(CO)[C@@H](O)[C@H](O)C1O[C@H]1OC(CCP(=O)(O)O)[C@@H](O)[C@H](O)C1O` (stereo partly specified) gave an IC50 of 5 µM.
